In US9284580B2 (priority 2010, dated 2016):
Where two headings read alike, the source gives them in different places.

Key:
[1] = test system: AckKO(pMAD22); test: Batch fermentation in serum bottles with a hydrogenase inhibitor; type: cell-based, Clostridium tyrobutyricum; details: hydrogenase inhibitor added to fermentation
[2] = test system: C. tyrobutyricum mutants
Source text: Cell growth was monitored by measuring the optical density at 600 nm (OD600) of the culture broth.

## Cc1cc2nc3ccc(N(C)C)cc3nc2cc1N.Cl [neutral red]
[1]
  effect on acids and butanol production from glucose: significantly decreased acids production and enhanced butanol production from glucose

## C[n+]1ccc(-c2cc[n+](C)cc2)cc1 [methyl viologen]
[1]
  effect on acids and butanol production from glucose: significantly decreased acids production and enhanced butanol production from glucose

## butanol
[2]; 0.5% (v/v) butanol in RCM medium, strains studied
  effect on cell growth: does not have any apparent effect on cell growth
[2]; 2.0% (v/v) butanol, all strains started to grow after 2 days
  cell growth: no significant cell growth was observed for the first 24 hours
[2]; after adaptation
  tolerated butanol concentration: up to 2.0 % (v/v)
[2]; without adaptation
  tolerated butanol concentration: up to 1.5 % (v/v)
